Measured values published in patent US4925861A, “Carboxystyrene derivatives and drugs containing them as effective ingredients” (Mitsubishi Kasei Corporation, priority 1987, dated 1990).

Tested on: Phospholipase A2 from Naja mocambique
Assay: in vitro phospholipase inhibiting activity (DPybPC fluorescence)
Assay type: biochemical
Conditions: compound 10^-5 M, substrate DPybPC 2 μM, pH 8.0, 25° C.

Compound	Phospholipase A2 Inhibition (%)
O=C(Nc1ccccc1C(=O)O)c1cccc(C=Cc2nc3ccccc3s2)c1 [Compound 13]	73
CCC(CC)(CNC(=O)c1cccc(C=Cc2nc3ccccc3s2)c1)C(=O)O [Compound 20]	47
